Results: publication PMC12011184, “Galanin Reduces Myocardial Ischemia/Reperfusion Injury in Rats with Streptozotocin Diabetes” (Acta Naturae, 2025)

Test: Solubility of peptide G in water
Assay type: physicochemical
Method: Peptide G was obtained by convergent solid-phase synthesis through condensation of peptide segments, which, in turn, were obtained either on a polymer surface or in solution. Peptide G was purified by preparative HPLC to 98% purity on a Knauer chromatograph (Germany) using a Kromasil 100-10 ODS column (Sweden) (30 × 250 mm). Analytical HPLC was performed on a Kromasil 100-5 C18 column (4.6 × 250 mm) with a 5-μm sorbent particle size. The following eluents were used: 0.1% TFA as buffer A and 80% acetonitrile in buffer A as buffer B. The elution was carried out in a linear buffer B gradient ranging from 20 to 80% for 30 min at a rate of 1 ml/min. Detection was performed at λ = 220 nm (Supplementary materials; Fig. S1). The peptide structure was confirmed by MALDI-TOF/TOF mass spectrometry on an UltrafleXtreme Bruker Daltonics GmbH mass spectrometer (Germany) equipped with a UV laser (Nd) (Supplementary materials, Fig. S2).

Compound: CC[C@H](C)[C@H](NC(=O)[C@H](C)NC(=O)[C@H](Cc1c[nH]cn1)NC(=O)[C@@H]1CCCN1C(=O)CNC(=O)[C@H](CC(C)C)NC(=O)[C@H](CC(C)C)NC(=O)[C@H](Cc1ccc(O)cc1)NC(=O)CNC(=O)[C@H](C)NC(=O)[C@H](CO)NC(=O)[C@H](CC(N)=O)NC(=O)[C@H](CC(C)C)NC(=O)[C@@H](NC(=O)[C@H](Cc1c[nH]c2ccccc12)NC(=O)CN)[C@@H](C)O)C(=O)N[C@@H](CC(=O)O)C(=O)N[C@@H](CC(N)=O)C(=O)N[C@@H](Cc1c[nH]cn1)C(=O)N[C@@H](CCCNC(=N)N)C(=O)N[C@@H](CO)C(=O)N[C@@H](Cc1ccccc1)C(=O)N[C@@H](CO)C(=O)N[C@@H](CC(=O)O)C(=O)N[C@@H](CCCCN)C(=O)N[C@@H](Cc1c[nH]cn1)C(=O)NCC(=O)N[C@@H](CC(C)C)C(=O)N[C@H](C(N)=O)[C@@H](C)O [G, galanin]
- solubility: > 40 mg/mL
